Where “and” joins values, the source holds several entries; their conditions need not be identical. Equal values may be shown once.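 The compound was tested at five concentrations on cells cultured in 96-well plates, with a 48-hour exposure period. At the GI50, growth is halved. At the TGI there is no net growth.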
What was measured:
Assay in all cases: NCI tumour cell line growth inhibition, 48 h
A549 NSCLC = test system: A549 NSCLC
HCT-15 colon = test system: HCT-15 colon
HL-60(TB) leukemia = test system: HL-60(TB) leukemia
HOP-62 NSCLC = test system: HOP-62 NSCLC
M14 melanoma = test system: M14 melanoma
RPMI-8226 leukemia = test system: RPMI-8226 leukemia
SNB-19 CNS = test system: SNB-19 CNS
SNB-75 CNS = test system: SNB-75 CNS
UACC-62 melanoma = test system: UACC-62 melanoma
UO-31 renal = test system: UO-31 renal

Row | SMILES | GI50 (A549 NSCLC) [µM] | TGI (A549 NSCLC) | GI50 (HCT-15 colon) | TGI (HCT-15 colon) | GI50 (HL-60(TB) leukemia) [µM] | TGI (HL-60(TB) leukemia) [µM] | GI50 (HOP-62 NSCLC) [µM] | TGI (HOP-62 NSCLC) | GI50 (M14 melanoma) | TGI (M14 melanoma) [µM] | GI50 (RPMI-8226 leukemia) [µM] | TGI (RPMI-8226 leukemia) [µM] | GI50 (SNB-19 CNS) [µM] | TGI (SNB-19 CNS) | GI50 (SNB-75 CNS) [µM] | TGI (SNB-75 CNS) [µM] | GI50 (UACC-62 melanoma) [µM] | TGI (UACC-62 melanoma) | GI50 (UO-31 renal) [µM] | TGI (UO-31 renal)
1 | NC(=O)c1cccc(Nc2nccc(Nc3cccc(F)c3)n2)c1 | 7.45 | > 25 µM | 7.69 µM | > 25 µM | 7.52 | 20.5 | 8.24 | > 22.5 µM | 8.92 µM | > 25 | 11.4 | > 25 | 18.6 | > 25 µM | 6.22 | > 23.4 | 5.66 | 24.6 µM | 4.49 | 22.3 µM
2 | COc1c(Br)cc(Br)c(OC)c1-c1[nH]c(Br)c(Br)c1Br |  | 19.2 µM |  | 20.1 µM |  | 25.1 |  | 21.3 µM |  | 20.6 |  | 13.2 |  | > 100 µM |  | 17.6 |  | 22.4 µM |  | 8.73 µM
3 | CC1(C)N=C(N)N=C(N)N1c1ccc(OCC(=O)Nc2ccccc2)c(Cl)c1 | 0.0916 | > 71.8 µM | 72.3 µM | > 100 µM | 0.922 | > 100 | 5.77 | > 100 µM | 13.8 µM | > 100 | 9.89 | > 100 | 28.8 | > 100 µM | > 100 | > 100 | 0.569 | > 100 µM | > 100 | > 100 µM
4 | CC1(c2ccccc2)CC(c2ccccc2)=NO1 (stereo not given) |  | > 100 µM |  | > 100 µM |  | > 100 |  | > 100 µM |  | > 100 |  | > 100 |  | > 100 µM |  | > 100 |  | > 100 µM |  | > 100 µM
5 | O=C1C=C(O)c2[nH]c(=O)ccc2C1=O |  | > 100 µM |  | > 100 µM |  | > 100 |  | > 100 µM |  | > 100 |  | > 100 |  | > 100 µM |  | > 100 |  | > 100 µM |  | > 100 µM
6 | Cc1nnc(N/N=C(/C(=O)C(C#N)c2ccccc2)C(C#N)c2ccccc2)n1N (stereo not given) |  | 49.3 µM |  | > 53 µM |  | 57.8 |  | > 100 µM |  | 31.2 |  | 85.8 |  | > 100 µM |  | 34.7 |  | > 62.6 µM |  | > 56.5 µM
7 | O=c1c(Cl)c(Cl)cnn1CCc1ccncc1 |  | > 100 µM |  | 31.3 µM |  | 87.1 |  | 33.9 µM |  | 30.7 |  | > 100 |  | 30.7 µM |  | 33.2 |  | 39.8 µM |  | 36.2 µM
8 | O=S1(=O)NCCCN1CCNc1nccc(-c2c(-c3cccc(O)c3)nc3sccn23)n1 | 42.5 | > 100 µM | 43.6 µM | > 100 µM | 23 | 60 | 42.3 | > 100 µM | 0.366 µM | 15.5 | 35.9 | > 87.5 | > 92.5 | > 100 µM | 7.78 | > 100 | 0.0873 | 5.66 µM | 37 | > 96.6 µM
9 | CCC1=C[C@@H]2CN(C1)Cc1c([nH]c3ccccc13)[C@@](C(=O)OC)(c1cc3c(cc1OC)N(C)[C@H]1[C@@](O)(C(=O)OC)[C@H](OC(C)=O)[C@]4(CC)[C@@H]5C[C@@H]5CN5CC[C@]31[C@@H]54)C2 | < 0.005 | 5.95 µM and 12.2 µM | 0.0162 µM and 0.0881 µM | 6.21 µM and 16 µM | < 0.005 |  | < 0.005 | 6.94 µM and 16.7 µM | < 0.005 µM and 0.0119 µM |  | < 0.005 | 0.656 |  | 19.2 µM and 35.1 µM |  | 11 | < 0.005 | 6.39 µM and 16.9 µM |  | 7.7 µM and 12.6 µM
10 | OC(c1ccc(Br)cc1)(c1cccs1)C1CC1 (stereo not given) |  | > 100 µM |  | 65.7 µM |  | 52.7 |  | 47.2 µM |  | 45.3 |  | 54.7 |  | > 100 µM |  | 66.2 |  | 33.3 µM |  | 48.1 µM
11 | CCCCCCCCCCN=C(c1ccc(N(C)C)cc1)c1ccc(N(C)C)cc1 | 2.53 | > 77.6 µM | 0.365 µM | > 100 µM | 0.954 | 18.9 | 1.06 | 31.8 µM | 0.328 µM | 26.4 | 0.673 | 16.3 | 1.06 | > 76 µM | 0.4 | 6.69 | 0.508 | > 38.4 µM | 2.39 | 33 µM
12 | COc1ccc(/C=C2/CCc3cc4ccc(OC)cc4[o+]c32)c(O)c1 | 18.5 | 41.6 µM | 2.25 µM | 6.03 µM | 4.96 | 61.4 | 13.1 | 28 µM | 3.1 µM | 14.6 | 3.17 | 12.9 | 8.48 | 25.6 µM | 12.9 | 27.9 | 5.2 | 19.9 µM | 2.39 | 8.04 µM
13 | Cn1cc(-c2csc(-c3cn(C)c4ccccc34)n2)c2cnccc21 | 2.38 | 5.01 µM | 1.51 µM | 3.2 µM | 1.94 | 4.09 | 1.67 | 3.85 µM | 1.51 µM | 2.96 | 1.76 | 4.06 | 1.76 | 3.28 µM | 4.08 | 16.9 | 1.72 | 3.25 µM | 1.47 | 3.16 µM
14 | COC(=O)/C(C#N)=C1\CCC(C(=O)OC)N1C (stereo not given) |  | > 100 µM |  | > 100 µM |  | > 100 |  | > 100 µM |  | > 100 |  | > 100 |  | > 100 µM |  | > 100 |  | > 100 µM |  | > 100 µM
15 | CC(=O)OC1COC(n2c(=S)n(-c3ccccc3)c(=O)c3cc(Br)ccc32)C(OC(C)=O)C1OC(C)=O (stereo not given) |  | > 100 µM |  | > 100 µM |  | > 100 |  | 47.5 µM |  | > 100 |  | > 100 |  | 77.3 µM |  | 30.6 |  | > 100 µM |  | > 100 µM
16 | CC(C)c1ccccc1NC(=O)/C(Cl)=C1/Sc2ccccc2NC1=O |  | > 100 µM |  | > 100 µM |  | 52.6 |  | > 100 µM |  | > 100 |  | 58.8 |  | > 100 µM |  | 87.9 |  | > 100 µM |  | > 100 µM

Reference: PubChem BioAssay (NCI)
